Consider 25 compounds from patent US10040815B2, “3-substituted 5-amino-6H-thiazolo[4,5-d]pyrimidine-2,7-dione compounds for the treatment and prophylaxis of virus infection” (Hoffmann-La Roche Inc., priority 2014, dated 2018).

pEC50: −log10 of the molar value.

Chain of human TLR7 (Q9NYK1 27-1049): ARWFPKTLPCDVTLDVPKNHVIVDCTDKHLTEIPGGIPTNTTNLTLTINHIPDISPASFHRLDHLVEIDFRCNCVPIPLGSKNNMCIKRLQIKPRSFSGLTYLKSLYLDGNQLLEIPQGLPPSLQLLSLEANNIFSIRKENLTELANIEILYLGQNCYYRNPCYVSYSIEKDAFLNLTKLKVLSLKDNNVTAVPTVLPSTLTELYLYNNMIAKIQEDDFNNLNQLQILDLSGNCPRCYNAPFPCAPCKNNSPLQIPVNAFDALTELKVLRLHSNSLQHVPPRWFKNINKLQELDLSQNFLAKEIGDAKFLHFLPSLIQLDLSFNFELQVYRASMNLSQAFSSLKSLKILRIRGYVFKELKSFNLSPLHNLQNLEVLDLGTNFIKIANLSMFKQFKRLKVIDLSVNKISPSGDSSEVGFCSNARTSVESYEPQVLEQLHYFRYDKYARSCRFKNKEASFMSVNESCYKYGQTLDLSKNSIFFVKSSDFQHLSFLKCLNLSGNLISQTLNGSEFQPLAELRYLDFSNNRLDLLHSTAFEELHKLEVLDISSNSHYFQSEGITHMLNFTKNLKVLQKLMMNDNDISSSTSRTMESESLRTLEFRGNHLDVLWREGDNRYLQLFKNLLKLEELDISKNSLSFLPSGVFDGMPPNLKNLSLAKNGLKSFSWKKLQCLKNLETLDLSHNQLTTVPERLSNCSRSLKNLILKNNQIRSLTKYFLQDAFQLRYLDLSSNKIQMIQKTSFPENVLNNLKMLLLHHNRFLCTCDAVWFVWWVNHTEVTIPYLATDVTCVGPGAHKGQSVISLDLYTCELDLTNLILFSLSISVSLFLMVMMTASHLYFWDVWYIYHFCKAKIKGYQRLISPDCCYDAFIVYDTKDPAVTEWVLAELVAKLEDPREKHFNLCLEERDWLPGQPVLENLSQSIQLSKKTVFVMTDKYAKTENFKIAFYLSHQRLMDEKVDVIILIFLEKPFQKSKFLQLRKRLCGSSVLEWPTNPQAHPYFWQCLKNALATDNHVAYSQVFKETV

One data set concerns the target human TLR7 (Homo sapiens (Human), UniProt Q9NYK1). Briefly: HEK293-Blue-hTLR-7 cells assay (SEAP reporter, NF-κB activation). Format: cell-based.
Settings: not given
An excerpt: HEK293-Blue-hTLR-7 Cells Assay: A stable HEK293-Blue-hTLR-7 cell line was purchased from InvivoGen (Cat.#: hkb-htlr7, San Diego, Calif., USA). These cells were designed for studying the stimulation of human TLR7 by monitoring the activation of NF-κB. A SEAP (secreted embryonic alkaline phosphatase) reporter gene was placed under the control of the IFN-β[…] minimal promoter fused to five NF-κB and AP-1-binding sites. The SEAP was induced by activating NF-κB and AP-1 via stimulating HEK-Blue hTLR7 cells with TLR7 ligands. Therefore the reporter expression was regulated by the NF-κB promoter upon stimulation of human TLR7 for 20 hours. The cell culture supernatant SEAP reporter activity was determined using QUANTI-Blue™ kit (Cat.#: rep-qb1, Invivogen, San Diego, Calif., USA) at a wavelength of 640 nm, a detection medium that turns purple or blue in the presence of alkaline phosphatase. […] Then 20 μL of the supernatant from each well was incubated with 180 μL Quanti-blue substrate solution at 37° C. for 2 hours and the absorbance was read at 620˜655 nm using a spectrophotometer. […] Hiroaki Hemmi et al, Nature Immunology 3, 196-200 (2002).
`CC[C@H](O)[C@@H]1C[C@@H](C)[C@H](n2c(=O)sc3c(=O)[nH]c(N)nc32)O1` [Example 28, 5-amino-3-[(2R,3R,5S)-5-[(1S)-1-hydroxypropyl]-3-methyl-tetrahydrofuran-2-yl]-6H-thiazolo[4,5-d]pyrimidine-2,7-dione] showed a negative-log EC50 (pEC50) of 5.00.

The same data set, now with this note: HEK293-Blue-hTLR-7 cells, 20 hours incubation, SEAP reporter; read-out: HEK293- hTLR-7 EC50.
With `CCCC(O)[C@@H]1C[C@@H](O)[C@H](n2c(=O)sc3c(=O)[nH]c(N)nc32)O1` (single isomer, unassigned) [Example 10-A], the negative logarithm of the EC50 (pEC50) was 4.20.
Take `Nc1nc2c(sc(=O)n2[C@@H]2O[C@H](C(O)C3CC3)C[C@H]2O)c(=O)[nH]1` (single isomer, unassigned) [Example 14-A]: the negative-log EC50 (pEC50) is 4.32.
As for `CC#CC(O)[C@@H]1C[C@@H](O)[C@H](n2c(=O)sc3c(=O)[nH]c(N)nc32)O1` (single isomer, unassigned) [Example 19-A], the pEC50 is 4.42.
The same measure, in the same setting: to `C[C@H](O)[C@@H]1C[C@@H](C)[C@H](n2c(=O)sc3c(=O)[nH]c(N)nc32)O1` [Example 31, 5-Amino-3-[(2R,3R,5S)-5-[(1S)-1-hydroxyethyl]-3-methyl-tetrahydrofuran-2-yl]-6H-thiazolo[4,5-d]pyrimidine-2,7-dione] belongs 4.15; to `Nc1nc2c(sc(=O)n2[C@@H]2O[C@H](CO)C[C@H]2N2CCCC2)c(=O)[nH]1` [Example 32, 5-Amino-3-[(2R,3R,5S)-5-(hydroxymethyl)-3-pyrrolidin-1-yl-tetrahydrofuran-2-yl]-6H-thiazolo[4,5-d]pyrimidine-2,7-dione], 4.17; to `CC[C@H](OC(=O)C(C)C)[C@@H]1C[C@@H](O)[C@H](n2c(=O)sc3c(=O)[nH]c(N)nc32)O1` [Example 42, [(1S)-1-[(2S,4R,5R)-5-(5-Amino-2,7-dioxo-6H-thiazolo[4,5-d]pyrimidin-3-yl)-4-hydroxy-tetrahydrofuran-2-yl]propyl] 2-methylpropanoate], 4.29.
As to `CCC(O)[C@@H]1C[C@@H](SC)[C@H](n2c(=O)sc3c(=O)[nH]c(N)nc32)O1` (single isomer, unassigned) [Example 22-A], the pEC50 was 4.85.
Take `CCC[C@@H]1C[C@@H]([C@@H](O)CC)O[C@H]1n1c(=O)sc2c(=O)[nH]c(N)nc21` [Example 27-A, 5-amino-3-[(2R,3R,5S)-5-[(1S)-1-hydroxypropyl]-3-propyl-tetrahydrofuran-2-yl]-6H-thiazolo[4,5-d]pyrimidine-2,7-dione]: the negative logarithm of the EC50 (pEC50) is 4.82.
With `C=CC(O)[C@@H]1C[C@@H](O)[C@H](n2c(=O)sc3c(=O)[nH]c(N)nc32)O1` (single isomer, unassigned) [Example 24-A], the negative logarithm of the EC50 (pEC50) was 4.15.
For the compound `CC#C[C@H](O)[C@@H]1C[C@@H](C)[C@H](n2c(=O)sc3c(=O)[nH]c(N)nc32)O1` [Example 29, 5-Amino-3-[(2R,3R,5S)-5-[(1S)-1-hydroxybut-2-ynyl]-3-methyl-tetrahydrofuran-2-yl]-6H-thiazolo[4,5-d]pyrimidine-2,7-dione], the negative-log EC50 (pEC50) was 4.54.
As to `C#CC(O)[C@@H]1C[C@@H](O)[C@H](n2c(=O)sc3c(=O)[nH]c(N)nc32)O1` (single isomer, unassigned) [Example 18-A], the negative-log EC50 (pEC50) is 4.92.
In the case of `CCC(O)[C@@H]1C[C@@H](N=[N+]=[N-])[C@H](n2c(=O)sc3c(=O)[nH]c(N)nc32)O1` (single isomer, unassigned) [Example 23-A], the pEC50 is 4.59.
As to `C=CCC(O)[C@@H]1C[C@@H](O)[C@H](n2c(=O)sc3c(=O)[nH]c(N)nc32)O1` (single isomer, unassigned) [Example 8-A], the pEC50 was 4.06.
For `C=CC[C@@H]1C[C@@H](C(O)CC)O[C@H]1n1c(=O)sc2c(=O)[nH]c(N)nc21` (stereo partly drawn) [Example 26, 3-[(2R,3R,5S)-3-allyl-5-(1-hydroxypropyl)tetrahydrofuran-2-yl]-5-amino-6H-thiazolo[4,5-d]pyrimidine-2,7-dione], the pEC50 is 4.54.
Same read-out and setting: to `C[C@@H]1C[C@@H]([C@@H](O)C2CC2)O[C@H]1n1c(=O)sc2c(=O)[nH]c(N)nc21` [Example 30, 5-Amino-3-[(2R,3R,5S)-5-[(S)-cyclopropyl(hydroxy)methyl]-3-methyl-tetrahydrofuran-2-yl]-6H-thiazolo[4,5-d]pyrimidine-2,7-dione] belongs 4.82.
On the same count and under the same terms, the result for `Nc1nc2c(sc(=O)n2[C@@H]2O[C@H](CO)C[C@H]2O)c(=O)[nH]1` [ANA-122, reference compound] reads 3.35; that for `CS[C@@H]1C[C@@H](CO)O[C@H]1n1c(=O)sc2c(=O)[nH]c(N)nc21` [Example 39, 5-Amino-3-[(2R,3R,5S)-5-(hydroxymethyl)-3-methylsulfanyl-tetrahydrofuran-2-yl]-6H-thiazolo[4,5-d]pyrimidine-2,7-dione], 4.21.
With `C=CC[C@@H]1C[C@@H](C(O)CC)O[C@H]1n1c(=O)sc2c(=O)[nH]c(N)nc21` (single isomer, unassigned) [Example 26-A], the negative logarithm of the EC50 (pEC50) was 4.92.

The test system of the next data set is HBV (hepatitis B virus). Briefly: In vivo antiviral efficacy in AAV-HBV mouse model. Particulars: 100 mg/kg PO, QOD, after the 6-week treatment, mouse serum.
Description: The treatment started after the mice were infected with AAV-HBV for 29 days. They were given the treatment for 42 days, and HBV DNA and HBsAg in mouse serum were measured on the indicated time points by RT-qPCR and HBsAg CLIA respectively. The results were presented as mean±SEM. LLQ: lower limit of quantification.
This mouse model for HBV infection was generated by injecting C57BL/6 mice with a recombinant adeno-associated virus (AAV) carrying a replicable HBV (hepatitis B virus) genome (AAV-HBV).
For each study, ten 4-5 week old male C57BL/6 mice, specific pathogen free, were available from Shanghai Laboratory Animal Center of Chinese Academy of Sciences (SLAC) and housed in an animal care facility in individually ventilated cages under controlled temperature and light conditions following the Institutional Animal Care guidelines. AAV-HBV virus stock was purchased from Beijing FivePlus Molecular Medicine Institute (Beijing, China). C57BL/6 mice were injected with 200 μL of recombinant virus in saline buffer through tail vein injection. The mice were bled on day 14 post injection to monitor the levels of HBsAg, HBeAg, and HBV genomic DNA in serum, and randomly grouped based on these HBV biomarker levels.
All the mice were treated for a total of 6 weeks. Serum samples were collected twice a week to monitor the levels of HBV biomarkers. Serum HBsAg was measured using CLIA kits (Autobio Diagnostics Co., Ltd, Zhengzhou, China) according to the manufacturer's instructions. The lower limit of quantification (LLQ) for HBsAg was 0.1 ng/mL. Serum dilution of 500-fold (for HBsAg) was used to obtain values within the linear range of the standard curve. Serum HBV DNA was extracted using a MagNA Pure 96 DNA and Viral NA Small Volume Kit (Roche) following the manufacturer's instructions. The DNA samples were analyzed by real-time quantitative PCR (qPCR) using a HBV-specific primer and probe set for specific amplification and detection of a 128 bp HBV genome region from the nucleotide 2969 to 3096. The LLQ for HBV DNA was 20 copies/μL.
Take `CCC(OC(C)=O)[C@@H]1C[C@@H](O)[C@H](n2c(=O)sc3cnc(N)nc32)O1` (single isomer, unassigned) [Example 4-A]: the “reduction in HBV DNA” value was “more than 2 log” and the “reduction in HBsAg” value is recorded as 1.5 log.

The data set is the same for the next values; noted with them: 300 mg/kg PO, QOD, at the end of the treatment (6 weeks), mouse serum.
As to `CCC(OC(C)=O)[C@@H]1C[C@@H](O)[C@H](n2c(=O)sc3cnc(N)nc32)O1` (single isomer, unassigned) [Example 4-A], the “reduction in HBV DNA” value is on record as “more than 3 log” and the “reduction in HBsAg” value is reported as 2.7 log.

The next data set concerns human hepatocytes. Briefly: Metabolic conversion of prodrugs to active forms in human hepatocytes (LC-MS/MS). Particulars: after 3-hour incubation of 50 μM of prodrugs; product 1-A, 14-A or Penciclovir. Type of data set: in vitro ADME. An excerpt:
Metabolism of Prodrugs: Formula (II) or Formula (IIa) A study was undertaken to evaluate the metabolic conversion of prodrugs, formula (II) or formula (IIa), to compounds of formula (I) or formula (Ia) of the present invention. The produgs, formula (II) or formula (IIa), can be metabolized to the active compound of formula (I) or formula (Ia) and other compounds of the invention in the body if they are served as prodrugs. Hepatocytes are often used to assess the degree of metabolic conversion of prodrugs in the body of animal or human. A study was undertaken to evaluate the metabolic conversion of prodrugs, Example 2-A, Example 3-A, Example 4-A, Example 16-A and Example 17-A, to the corresponding active forms, Example 1-A and Example 14-A, in the presence of human hepatocytes. The formation of active forms, Example 1-A and Example 14-A, were monitored in the study. For comparison, the metabolic conversion of famciclovir to penciclovir was also assessed. Cryopreserved hepatocytes plating medium (Cat.#: PY-HMD-01) was purchased from RILD Research Institute for Liver Diseases (Shanghai) Co. Ltd. Cryopreserved human hepatocyte (Cat.#: X008005, Lot#:VRR) was purchased from In Vitro Technologies (Baltimore, Md.). The stock hepatocyte suspension was prepared from cryopreserved hepatocytes in plating medium at the concentration of 1.8×10^6 cells/mL. […] Reaction suspensions were prepared in 24-well cell culture plate by mixing 200 μL of hepatocytes suspension (Cyno or human) and 200 μL of working solution. The final incubation contained 0.9×10^6 cells/mL and 50 μM compound. The above mixtures were incubated at 37° C. in a humidified 5% CO2 atmosphere, with a 150 rpm shaking. After 180 min of incubation, 200 μL of the incubation mixture was transferred to 1.5 mL tube and quenched with 400 μL stop solution (ice-cold acetonitrile with 0.2 μM Tolbutamide as internal standard). The samples were centrifuged at 12000 rpm for 10 minutes and the resultant supernatants were subjected to LC-MS/MS analysis. The calibration curves were prepared in the following way. To a 200 μL of cell suspension (cell density of 1.8 million cells/mL), 198 μL of hepatocyte plating medium and 2 μL of the appropriate concentration of the compound in DMSO were added. Samples were mixed thoroughly and 200 μL of the mixture was transferred to 400 uL of the stop solution (see above). […] The compounds were quantified on an API5500 […] instrument in the ESI-Positive MRM mode.
As for `Nc1ncc2sc(=O)n([C@@H]3O[C@H](C(O)C4CC4)C[C@H]3O)c2n1` (stereo partly drawn) [Example 17-A, 5-Amino-3-[(2R,3R,5S)-5-[cyclopropyl(hydroxy)methyl]-3-hydroxy-tetrahydrofuran-2-yl]thiazolo[4,5-d]pyrimidin-2-one], the “Product Concentration in human hepatocytes (metabolized product formed from prodrug)” value was 7.3 µM.

Still in this data set, the particulars now being: human hepatocytes; active metabolites Example 1-A, Example 14-A and penciclovir, respectively.
In the case of `CCC(O)[C@@H]1C[C@@H](O)[C@H](n2c(=O)sc3cnc(N)nc32)O1` (single isomer, unassigned) [Example 2-A], the “metabolic conversion of prodrug to active metabolite in human hepatocytes” value (“metabolic conversion of prodrug” below) is “metabolized to yield the corresponding active metabolites”.
Consider `CC(=O)OCC(CCn1cnc2cnc(N)nc21)COC(C)=O` [Famciclovir, famciclovir, reference compound], for which the “metabolic conversion of prodrug” value is on record as “metabolized to yield the corresponding active metabolites”.
On the same count and under the same terms, to `CC(=O)OC(C1CC1)[C@@H]1C[C@@H](O)[C@H](n2c(=O)sc3cnc(N)nc32)O1` (single isomer, unassigned) [Example 16-A] belongs “metabolized to yield the corresponding active metabolites”.
For `Nc1ncc2sc(=O)n([C@@H]3O[C@H](C(O)C4CC4)C[C@H]3O)c2n1` (stereo partly drawn) [Example 17-A, 5-Amino-3-[(2R,3R,5S)-5-[cyclopropyl(hydroxy)methyl]-3-hydroxy-tetrahydrofuran-2-yl]thiazolo[4,5-d]pyrimidin-2-one], the “metabolic conversion of prodrug” value is given as “metabolized to yield the corresponding active metabolites”.
With `CCC(O)[C@@H]1C[C@@H](OC(C)=O)[C@H](n2c(=O)sc3cnc(N)nc32)O1` (single isomer, unassigned) [Example 3-A], the “metabolic conversion of prodrug” value was “metabolized to yield the corresponding active metabolites”.
Regarding `CCC(OC(C)=O)[C@@H]1C[C@@H](O)[C@H](n2c(=O)sc3cnc(N)nc32)O1` (single isomer, unassigned) [Example 4-A], the “metabolic conversion of prodrug” value is reported as “metabolized to yield the corresponding active metabolites”.
